In patent US6448283B1, “Methods for preventing/treating damage to sensory hair cells and cochlear neurons” (Cephalon, Inc., priority 1998, dated 2002):
Entries after “also recorded” stand apart in the source; their conditions may differ.

Columns and labels:
[1] = tested on: hair cells of the organ of Corti; assay: TUNEL staining of apoptotic hair cells in noise-exposed cochleas; format: in vivo, guinea pig; details: first 6 days after noise exposure
Protocol: (§1) Adult Dunkin-Hartley female guinea pigs (weight 300-500 g) were exposed, 4 animals at a time, to octave band noise, with a center frequency of 4.0 kHz, 120 dB SPL for 6 hr as described in Example 1. Fragmented hair cell nuclei were assessed from noise-exposed cochleas immediately and 1, 2, 4, 6, 8 and 14 days after noise exposure. Noise-exposed and nonexposed guinea pigs were decapitated under deep anesthesia and inner ears were perilymphatically perfused with 4% paraformaldehyde in PBS, and processed for […] paraffin-embedded sections (Ylikoski et al., Hear Res 65:69-78, 1993; Ylikoski et al., Hear Res 124:17-26, 1998). TUNEL-staining was performed as described below. DNA fragmentation was also verified by DAPI nuclear counterstain (see below). Further, trauma-induced nuclear fragmentation was verified by morphological analysis of contralateral cochleas that were perilymphatically fixed with 2.5% glutaraldehyde in 0.1M phosphate buffer, pH 7.4, postfixed with 1% osmium tetroxide, embedded in epoxy resin, and prepared for surface preparations (see below). Selected cochlear segments were then cut in transverse and horizontal planes to semi-thin (1.0 mm) sections that were stained with 1% toluidine blue. Analysis was done under an Olympus Provis microscope equipped with Nomarski optics. […]

[2] = tested on: hair cells (IHC, OHC) of the organ of Corti; assay: Cytocochleograms of missing hair cells after noise exposure (Example 2); format: in vivo, guinea pig; details: 2 weeks after noise exposure
motorneurons = details: by inhibiting the JNK signaling pathway; Maroney et al., 1998; cited from earlier work
[3] = tested on: hair cells of cochlear explants; assay: TUNEL staining of hair cells in neomycin-exposed cochlear explants; format: cell-based, rat; details: 500 nM Formula II coincubated with neomycin; n=5 explants
Protocol: Six, 12 and 24 hr after adding 100 μM neomycin to the medium, cochlear cultures were fixed with 4% paraformaldehyde in PBS for 30 min. The specimens were prepared for 5 um-thick paraffin sections. They were stained with a TUNEL-kit, mounted in Vectashield containing DAPI nuclear counterstain (Vector, Burlingame, Calif.), and viewed under an Olympus Provis microscope (Tokyo, Japan) using epifluorescence. In addition to TUNEL-staining, DNA fragmentation was verified under UV illumination using DAPI counterstain.

[4] = tested on: noise-exposed guinea pigs; assay: ABR threshold shifts, delayed dosing after noise trauma; format: in vivo, guinea pig
Protocol: Guinea pigs were exposed to 120 dB, 4 kHz noise for 6 hr. The compound of Formula II was administered beginning 2 hours to 1 day prior to noise trauma, or 1 day after noise trauma, or 4 days after noise trauma. Dosing continued for 2 weeks after noise exposure. As described above, cochleas were prepared and numbers of preserved and lost inner hair cells (IHCs) and outer hair cells of different rows (OHC1, OHC2, OHC3) were counted 2 weeks post noise trauma.
ABRs were determined 1 day before noise trauma (baseline values) and 2 weeks post noise trauma. […] Thresholds were determined at frequencies 2, 4, 8, 16 and 32 kHz from a set of responses at varying intensities with 5 dB intervals and 1000 sweeps near the threshold. ABRs were measured with System II hardware and BioSig software. Ketamine (40 mg/kg) and xylazine (10 mg/kg) were used for anaesthesia.

[5] = tested on: cochlear ganglion neurons; assay: Survival of dissociated cochlear neurons in culture; format: cell-based; details: E21 rat cochlear ganglia; Formula II 500 nM; NT-3 2 ng/ml in parallel cultures; 48 hr
Protocol: Neuronal enriched cultures from embryonic day 21 (E21) rat cochlear ganglia were prepared as previously described (Ylikoski et al., Hear. Res., 1998, 124:17-26). The cultures were maintained in F14 medium (Life Technologies, Gaithesburg, Md.) containing 10% horse serum (Life Technologies). […] After 48 hr, cultures were fixed with 4% paraformaldehyde and responses were assessed under a phase contrast microscope. Surviving neurons were distinguished by a phase-bright cell body and definite neurites.

[6] = tested on: noise-exposed guinea pigs; assay: ABR threshold shifts after noise exposure (Example 2); format: in vivo, guinea pig; details: day 6 postexposure; n=11; P<0.05 at 4 and 8 kHz, P<0.01 at 16 kHz
Protocol: as §1, with “below).” for “below). Selected cochlear segments were then cut in transverse and horizontal planes to semi-thin (1.0 mm) sections that were stained with 1% toluidine blue. Analysis was done under an Olympus Provis microscope equipped with Nomarski optics.”
Auditory brainstem responses (ABRs) were measured 2 days before noise exposure, and 2, 6 and 14 days after exposure under anesthesia (xylazine 10 mg/kg and ketamine 40 mg/kg). […] Hearing threshold was determined from a set of responses at varying intensities. […]

[7] = tested on: pigmented guinea pigs exposed to traumatic octave band noise; assay: ABR hearing thresholds after noise trauma (Example 1); format: in vivo; details: guinea pig; 1 mg/kg s.c. daily from 24 h before noise to day 21; noise 4.0 kHz 125 dB SPL 105 min; across test frequencies; 21 days after exposure
Protocol: Baseline hearing of 8 pigmented guinea pigs (200-300 g) was tested by ABR as described below. ABR is a measure of hearing function. Four animals were treated with daily subcutaneous (s.c.) injections of the compound of Formula II, 1 mg/kg, starting 24 hours prior to noise trauma and lasting until 21 days after exposure to the noise trauma. Four animals served as controls and received only vehicle (the fourth animal died under anaesthesia). All the animals were exposed to traumatic octave band noise, center frequency 4.0 kHz, 125 dB SPL (sound pressure level) for 105 min.
ABR thresholds were again determined 21 days after exposure to the noise trauma. ABR thresholds were measured with System II hardware and BioSig software (Tucker Davis Technology). Stimulus with 1 ms cos2 rise and fall and 18 ms plateau was presented with Beyer earphone connected to speculum (placed in the meatus of the external ear canal) at a rate of 20 Hz. Stimulus was calibrated against a Bruel & Kjaer 4134 microphone connected to a Bruel & Kjaer 2203 sound level meter. A Grass P15 preamplifier and custom amplifier provided gain of 10^5 and filtering of 0.3 to 3.0 kHz. Two responses were obtained at each intensity level. Thresholds were determined for the frequencies 2, 4, 8, 16 and 32 kHz from a set of responses at varying intensities with 5 dB intervals and 1000 sweeps near threshold.

**Q.** Which “amount of apoptotic hair cell loss versus control cochleas” value [1] does the source give for `CCSCc1ccc2c(c1)c1c3c(c4c5cc(CSCC)ccc5n5c4c1n2C1C[C@](O)(C(=O)OC)[C@]5(C)O1)CNC3=O` [Formula II] here?
**A.** less

**Q.** And the “hair cell loss versus noise-exposed control (cytocochleograms)” value ([2]; in words)?
**A.** rescues IHCs as well as OHCs of each of the 3 rows; also recorded: significantly lower percentage of sensory hair cells were lost

**Q.** What about the “extent of the area of destruction of the organ of Corti” value ([2]; Formula II treated cochleas) of the same compound?
**A.** 0.1-0.2 mm

**Q.** And the “death of motorneurons in vitro” value (motorneurons)?
**A.** prevent death of motorneurons in vitro

**Q.** What about the “TUNEL-labeling in hair cells” value [3] of the same compound?
**A.** prevented

**Q.** What about the “average threshold shift of control animals greater than that of treated animals” value ([4]; Formula II begun prior to the lesion, noise 120 dB 4 kHz 6 hr, 2 weeks post noise) of the same compound?
**A.** 20-40 dB

**Q.** And the “ABR threshold shift versus vehicle-treated, noise-exposed controls” value ([4]; Formula II-treated animals, 2 weeks post noise)?
**A.** less threshold shift at all frequencies tested

**Q.** And the “ABR threshold shift, delayed administration” value ([4]; administration begun 1 or 4 days after exposure to noise)?
**A.** Decreased threshold shifts

**Q.** And the “survival of cochlear neurons” value [5]?
**A.** as efficacious as NT-3

**Q.** And the “ABR threshold shifts versus noise-exposed control group” value [6]?
**A.** significantly less

**Q.** And the ABR threshold shift [7]?
**A.** 20-40 dB
